Test results taken from patent US8007833B2, “Method of reducing infections and/or air embolisms associated with vascular access procedures” (Biolife, L.L.C., priority 2009, dated 2011).

Legend:
Experiment in all cases: Biofilm Eradication with Calgary Biofilm Device
Type in all cases: cell-based
S. aureus = system: S. aureus
Excerpt: (§1) VI. Biofilm Eradication with Calgary Biofilm Device [Innovotech]
(§2) Minimum Inhibitory Concentration (MIC) Breakpoints

S. epidermidis = system: S. epidermidis
Excerpt: as §1, §2

P. aeruginosa = system: P. aeruginosa
Excerpt: as §1, §2
(§3) Minimum Bactericidal Concentration (MBC) Breakpoints
(§4) Minimum Biofilm Eradication Concentration (MBEC) Breakpoints
(§5) Minimum Concentration that Kills Biofilms with Log R of 3 or Higher

MRS. aureus = system: MRS. aureus
Excerpt: as §1, §3, §4, §5

MRS. epidermidis = system: MRS. epidermidis
Excerpt: as §1, §3, §4, §5

Gentamicin
Minimum Inhibitory Concentration (MIC) Breakpoints (S. aureus): <8 µg/mL | Minimum Inhibitory Concentration (MIC) Breakpoints (S. epidermidis): <8 µg/mL | Minimum Bactericidal Concentration (MBC) Breakpoints (P. aeruginosa; P. aeruginosa): <8 µg/mL | Minimum Inhibitory Concentration (MIC) Breakpoints (P. aeruginosa; P. aeruginosa): <8 µg/mL | Minimum Biofilm Eradication Concentration (MBEC) Breakpoints (P. aeruginosa; P. aeruginosa biofilm): >1024 µg/mL | Minimum Concentration that Kills Biofilms with Log R of 3 or Higher (P. aeruginosa; P. aeruginosa biofilm): 64 ug/mL | Log 10 Reduction (P. aeruginosa; P. aeruginosa biofilm, at 256 ug/mL, 128 ug/mL and 64 ug/mL): greater than three | Minimum Bactericidal Concentration (MBC) Breakpoints (MRS. aureus; MRS. aureus): <16 µg/mL | Minimum Biofilm Eradication Concentration (MBEC) Breakpoints (MRS. aureus; MRS. aureus biofilm): 1024 µg/mL | Minimum Concentration that Kills Biofilms with Log R of 3 or Higher (MRS. aureus; MRS. aureus biofilm): 1024 ug/mL | Log 10 Reduction (MRS. aureus; MRS. aureus biofilm, at only 1024 ug/mL): greater than 3 | Minimum Bactericidal Concentration (MBC) Breakpoints (MRS. epidermidis; MRS. epidermidis): <8 µg/mL | Minimum Biofilm Eradication Concentration (MBEC) Breakpoints (MRS. epidermidis; MRS. epidermidis biofilm): >1024 µg/mL | Minimum Concentration that Kills Biofilms with Log R of 3 or Higher (MRS. epidermidis; MRS. epidermidis biofilm): >1024 ug/mL | Log 10 Reduction (MRS. epidermidis; MRS. epidermidis biofilm, at any concentration): ≤ 3
